Experimental data from patent US20230165872A1, “COMBINATION OF BCMA-DIRECTED T CELL THERAPY AND AN IMMUNOMODULATORY COMPOUND” (Juno Therapeutics, Inc., priority 2020, published 2023).

Assays:
[1] = tested on: RPMI-8226 target cells; assay: Rechallenge with RPMI-8226 after concurrent compound treatment during chronic stimulation (cytolysis, cytokines); assay type: cell-based, human
Procedure: (§1) Cryofrozen anti-BCMA CAR T cells, produced substantially as described in Example 1 and formulated at a 1:1 ratio of CD4+ and CD8^+ T cells, were thawed. To subject cells to chronic stimulation conditions, the anti-BCMA CAR+ T cells were stimulated with 50 μg BCMA conjugated beads (diameter about 4.5 μm from a 50 μg/ml BCMA-conjugated bead composition, generated as described in Example 2) at a ratio of T cells to beads of 1:1 in the presence or absence of Compound A (iberdomide, (S)-3-[4-(4-morpholin-4-ylmethyl-benzyloxy)-1-oxo-1,3-dihydro-isoindol-2-yl]-piperidine-2,6-dione) (1 nM or 10 nM), Compound B ((S)-4-(4-(4-(((2-(2,6-dioxopiperidin-3-yl)-1-oxoisoindolin-4-yl)oxy)methyl)benzyl)piperazin-1-yl)-3-fluorobenzonitrile) (0.1 nM or 1 nM), or DMSO vehicle control. The cells were then incubated at 37° C., 5% CO2 for 7 days.
CAR T cells that had been stimulated for 7 days with cultured with 50 μg BCMA-coated magnetic beads concurrently in the presence of the cell immunomodulatory compound were washed free of compound and cells were debeaded. The anti-BCMA CAR T cells that had been stimulated for 7 days with BCMA-conjugated beads in the presence of the compounds were co-cultured with RPMI-8226 target cells (labeled with NucLightRed as described in Example 2) at a 1:1 (effector:target) ratio. Killing activity was monitored over 200 hours by measuring NucLightRed (NLR)-positive target cells. The total cell number of NLR-expressing RPMI targets cells was determined by normalizing cell number over time to the number of cells at the initiation of the co-culture (t=0) for each respective condition.
For cytokine measurements, cell-free supernatants were collected from the cytolytic assay described above 24 hours after plating. Cytokine levels of IFNg, IL-2, and TNFalpha (TNFα) was measured in the supernatant.
(§2) Cryofrozen anti-BCMA CAR T cells, produced substantially as described in Example 1 and formulated at a 1:1 ratio of CD4+ and CD8+ T cells, were thawed. […] The cells were then incubated at 37° C., 5% CO2 for 7 days.
Cytolytic activity was assessed using OPM-2 and RPMI-8226 BCMA expressing target cells transduced with NucLight Red, a red fluorescent protein detectable by microscopy, to allow for measurement of target cell death. Anti-BCMA CAR T cells that had been stimulated for 7 days with BCMA-conjugated beads in the presence of the compounds were co-cultured with RPMI-8226 target cells at a 0.3:1 (effector:target) or 1:1 ratio. Cultures were incubated at 37° C., 5% CO2, and images were taken every 2 hours over 5-7 days with an Essen IncuCyte Zoom live-cell analysis system to track NucLightRed-positive target cells.
For cytokine measurements, cell-free supernatants were collected from the cytolytic assay described above 24 hours after plating. Cytokine levels were measured using IFNg, IL-2, and TNFalpha Meso Scale Discovery cytokine kit (Mesoscale) according to manufacturer instructions. The data was analyzed using GraphPad Prism to calculate absolute changes in cytokine relative to the DMSO vehicle control.

[2] = tested on: CAR-expressing T cells; assay: Prolonged treatment: long-term proliferative potential of CAR-expressing T cells; assay type: cell-based; set-up: long term product performance: dose or concentration left out as unconfirmed
[3] = molecular target: CRBN (Homo sapiens, UniProt Q96SW2); conditions: compared with lenalidomide and pomalidomide; cited from earlier work
CRBN, sequence (Q96SW2 whole entry, species assumed): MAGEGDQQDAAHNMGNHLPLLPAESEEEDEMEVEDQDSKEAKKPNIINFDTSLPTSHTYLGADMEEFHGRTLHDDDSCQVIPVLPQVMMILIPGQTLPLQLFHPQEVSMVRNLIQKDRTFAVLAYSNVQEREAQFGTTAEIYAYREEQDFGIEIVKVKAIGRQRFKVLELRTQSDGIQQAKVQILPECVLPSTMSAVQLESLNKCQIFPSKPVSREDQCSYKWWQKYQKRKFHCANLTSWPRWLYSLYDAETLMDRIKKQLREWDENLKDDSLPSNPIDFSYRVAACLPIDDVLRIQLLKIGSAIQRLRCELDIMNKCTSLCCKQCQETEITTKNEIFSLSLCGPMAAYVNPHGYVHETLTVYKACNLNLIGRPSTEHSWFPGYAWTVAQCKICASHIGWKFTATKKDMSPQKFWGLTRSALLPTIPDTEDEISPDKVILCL

[4] = tested on: Irradiated DF-15R target cells; assay: Serial stimulation assay of anti-BCMA CAR T cells; assay type: cell-based, human
Procedure: A serial stimulation assay or serial re-challenge assay was used to assess activity of anti-BCMA CAR T cells following repeated rounds of antigen stimulation, in the presence and absence of Compound A (iberdomide, (S)-3-[4-(4-morpholin-4-ylmethyl-benzyloxy)-1-oxo-1,3-dihydro-isoindol-2-yl]-piperidine-2,6-dione).
Anti-BCMA CAR+ T cells (generated as described in Example 1) were plated in triplicate at 1×10^5 cells/well on 96-well plates. Irradiated DF-15R target cells, which is a multiple myeloma (MM) cell line generated to be resistant to effect of cell immunomodulatory compounds (Lopez-Girona et al. Leukemia, 2012; 26:2326-2335), were added at an effector-to-target (E:T) ratio of 1:2 in the presence or absence of various concentrations (10 nM) of Iberdomide.
Every 3-4 days (start of each new round), CAR T cells were counted. Cells then were harvested and re-plated at the initial seeding density with fresh media, newly-added Iberdomide at the same concentration, where applicable, and newly-thawed, irradiated target cells. Five rounds of stimulation were carried out during a 19 day culture period. At day 5 and day 9 (24 hours after a re-plating (reset) cytokine production in the supernatant was assessed. Results were assessed in two different donors.

[5] = tested on: anti-BCMA CAR T cells; assay: Viability and count of anti-BCMA CAR T cells after 7-day chronic stimulation with BCMA-conjugated beads; assay type: cell-based, human
Procedure: as §1
At day 7, anti-BCMA CAR cells of all the samples were counted using a cellometer machine and stained for flow cytometric analysis. Cells were stained with a viability dye and analyzed by flow cytometry. Viability and count of anti-BCMA CAR T cells was increased in the presence of Compound A or Compound B.
as §2
At day 7, anti-BCMA CAR cells of all the samples were counted using a cellometer machine and stained for flow cytometric analysis. Cells were stained with a viability dye and analyzed by flow cytometry.

[6] = tested on: lymphoma cells; conditions: cited from earlier work
[7] = tested on: Aiolos; assay: Intracellular Aiolos expression in BCMA-bead stimulated anti-BCMA CAR T cells (flow cytometry, MFI); assay type: cell-based, human; conditions: CD4+CAR+ or CD8+CAR+ cells; 24 or 72 hours; lenalidomide 1000 nM, Compound A 1, 10, 100 nM, Compound B 0.1, 1, 10 nM
Procedure: A BCMA-Fc fusion protein containing the extracellular domain of human BCMA and a human IgG1Fc was conjugated to beads by covalently coupling to the surface of commercially available tosyl-activated magnetic beads having a diameter of approximately […] (M-450 beads, ThermoFisher, Waltham Mass.) (see e.g. International published PCT App. No. WO2019/027850). Following incubation, anti-BCMA CAR-expressing T cells were stained with antibodies and analyzed by flow cytometry to assess intracellular levels of Ikaros and Aiolos in CD4+CAR+ or CD8+CAR+ cells, as measured by median fluorescence intensity (MFI). Median fluorescence intensity (MFI) values for Ikaros and Aiolos were normalized and calculated as a percentage relative to vehicle control.

[8] = 24 hours after first reset (day 5) or second reset (day 9), FIG. 5B
[9] = Example 3: day 7, Compound A 1 or 10 nM, Compound B 0.1 or 1 nM
[10] = Example 7: day 7, lenalidomide 1000 nM, Compound A 0.1, 1 or 10 nM, FIG. 8

For O=C1CC[C@H](N2Cc3c(OCc4ccc(CN5CCOCC5)cc4)cccc3C2=O)C(=O)N1 [Compound A, (S)-3-[4-(4-morpholin-4-ylmethyl-benzyloxy)-1-oxo-1,3-dihydro-isoindol-2-yl]-piperidine-2,6-dione], which “cytolytic activity after long-term stimulation in the presence of compound” value ([1]; Example 7: E:T 0.3:1, lenalidomide 1000 nM, Compound A 1 or 10 nM, FIG. 9A) is on record?
Its value is “increased cytolytic activity”.

What about the “production of IFN-gamma” value ([1]; Example 7: supernatant at 24 hours, relative to DMSO, FIG. 9B) of the same molecule?
The value was “increased production”.

What about the “production of IL-2” value ([1]; Example 7: supernatant at 24 hours, relative to DMSO, FIG. 9C) of the same molecule?
Its value is “increased production”.

What about the “production of TNF-alpha” value ([1]; Example 7: supernatant at 24 hours, relative to DMSO, FIG. 9D) of the same molecule?
The value was “increased production”.

What about the “long term product performance” value ([2]; higher concentrations) of the same molecule?
The value was “detrimental”.

What about the “long-term proliferative potential of CAR-expressing T cells” value ([2]; prolonged treatment, 10 or 100 nM) of the same molecule?
Its value is “increase long-term proliferative potential”.

What about the “binding to CRBN” value [3] of the same molecule?
The value was “binds more potently”.

What about the “anti-BCMA CAR cell counts (number of population doublings)” value ([4]; 10 nM, E:T 1:2, five rounds over 19 days, two donors, FIG. 5A) of the same molecule?
Its value is “enhanced”.

What about the IL-2 production [4, 8] of the same molecule?
The IL-2 production was “increased”.

And the TNF-alpha production [4, 8]?
The TNF-alpha production was “increased”.

And the “count of anti-BCMA CAR T cells” value [5, 9]?
The value was “increased”.

And the “viability of anti-BCMA CAR T cells” value [5, 9]?
The value was “increased”.

What about the “count of anti-BCMA CAR T cells” value [5, 10] of the same molecule?
The value was “increased”.

And the “viability of anti-BCMA CAR T cells” value [5, 10]?
The value was “increased”.

And the “direct anti-proliferative effects on lymphoma cells” value [6]?
The value was “potent direct anti-proliferative effects”.

And the “intracellular Aiolos expression (MFI, percentage relative to vehicle control)” value [7]?
Its value is “concentration dependent decrease”.
